Measured values published in patent US12173322B2, “Genome-edited induced pluripotent stem cells, and cells derived therefrom, and uses thereof” (priority 2020, dated 2024).
Like-named read-outs stand apart in the source and are kept apart here.

Experiments:
Assay type in all cases: cell-based
[1] = biological target: T1, hNav1.5 (Homo sapiens, UniProt Q14524); experiment: Patch clamp electrophysiology (QPatch CiPA), hNav1.5
T1 construct: Eurofins

[2] = biological target: T2, hKv4.3/hKChIP2 (Homo sapiens, UniProt Q9UK17); experiment: Patch clamp electrophysiology (QPatch CiPA), hKv4.3/hKChIP2; settings: for IC50: Antagonist, read-out: Estimated IC50
T2 construct: Eurofins
T2 sequence (Q9UK17 1-655): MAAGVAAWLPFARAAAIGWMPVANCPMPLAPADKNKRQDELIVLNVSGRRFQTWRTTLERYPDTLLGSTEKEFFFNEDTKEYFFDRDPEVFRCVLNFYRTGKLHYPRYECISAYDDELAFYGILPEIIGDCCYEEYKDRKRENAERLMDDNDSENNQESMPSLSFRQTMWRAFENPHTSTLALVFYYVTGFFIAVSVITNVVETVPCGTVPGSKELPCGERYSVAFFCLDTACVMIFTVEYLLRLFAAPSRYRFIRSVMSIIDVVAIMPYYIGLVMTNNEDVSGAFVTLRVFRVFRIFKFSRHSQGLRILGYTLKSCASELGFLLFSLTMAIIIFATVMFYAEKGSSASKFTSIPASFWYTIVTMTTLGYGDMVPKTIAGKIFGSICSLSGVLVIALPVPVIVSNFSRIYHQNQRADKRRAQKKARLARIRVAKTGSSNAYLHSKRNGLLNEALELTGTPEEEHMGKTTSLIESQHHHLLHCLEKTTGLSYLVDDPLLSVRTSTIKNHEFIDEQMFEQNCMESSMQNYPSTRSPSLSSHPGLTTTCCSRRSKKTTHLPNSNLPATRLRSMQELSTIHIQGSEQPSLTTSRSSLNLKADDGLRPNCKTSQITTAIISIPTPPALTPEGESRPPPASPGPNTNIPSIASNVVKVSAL
T2 sequence (Q9NS61 1-270 partner): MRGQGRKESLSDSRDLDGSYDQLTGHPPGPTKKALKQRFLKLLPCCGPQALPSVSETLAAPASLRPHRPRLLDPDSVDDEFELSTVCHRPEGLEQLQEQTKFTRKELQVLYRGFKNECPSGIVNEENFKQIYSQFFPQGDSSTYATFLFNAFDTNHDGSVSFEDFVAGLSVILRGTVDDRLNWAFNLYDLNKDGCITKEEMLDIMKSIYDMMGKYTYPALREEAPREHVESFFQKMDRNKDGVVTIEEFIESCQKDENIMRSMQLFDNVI

[3] = biological target: T3, hKir2.1 (Homo sapiens, UniProt P63252); experiment: Patch clamp electrophysiology (QPatch CiPA), hKir2.1; settings: for IC50: Antagonist, read-out: Estimated IC50
T3 construct: Eurofins
T3 sequence (P63252 1-427): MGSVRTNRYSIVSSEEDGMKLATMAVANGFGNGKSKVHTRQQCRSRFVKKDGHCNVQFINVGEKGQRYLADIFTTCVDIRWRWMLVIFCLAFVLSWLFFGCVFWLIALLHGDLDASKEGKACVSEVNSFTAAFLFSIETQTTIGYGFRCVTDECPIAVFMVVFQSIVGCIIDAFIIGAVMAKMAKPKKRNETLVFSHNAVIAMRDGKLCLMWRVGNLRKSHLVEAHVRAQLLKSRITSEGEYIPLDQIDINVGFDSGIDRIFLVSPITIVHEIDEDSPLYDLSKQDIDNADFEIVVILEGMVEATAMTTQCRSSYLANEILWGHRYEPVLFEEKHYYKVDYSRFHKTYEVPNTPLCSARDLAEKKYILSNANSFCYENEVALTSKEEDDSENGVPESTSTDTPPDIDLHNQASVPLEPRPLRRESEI
Experimental: Replated hiPSC-CMs were loaded with a fluorescent calcium dye and calcium transients were recorded before and after peptide addition.

[4] = End, read-out: % inhibition mean
[5] = Peak, read-out: % inhibition mean
[6] = Peak, read-out: % inhibition n1
[7] = Peak, read-out: % inhibition n2

T1 sequence (Q14524 whole entry): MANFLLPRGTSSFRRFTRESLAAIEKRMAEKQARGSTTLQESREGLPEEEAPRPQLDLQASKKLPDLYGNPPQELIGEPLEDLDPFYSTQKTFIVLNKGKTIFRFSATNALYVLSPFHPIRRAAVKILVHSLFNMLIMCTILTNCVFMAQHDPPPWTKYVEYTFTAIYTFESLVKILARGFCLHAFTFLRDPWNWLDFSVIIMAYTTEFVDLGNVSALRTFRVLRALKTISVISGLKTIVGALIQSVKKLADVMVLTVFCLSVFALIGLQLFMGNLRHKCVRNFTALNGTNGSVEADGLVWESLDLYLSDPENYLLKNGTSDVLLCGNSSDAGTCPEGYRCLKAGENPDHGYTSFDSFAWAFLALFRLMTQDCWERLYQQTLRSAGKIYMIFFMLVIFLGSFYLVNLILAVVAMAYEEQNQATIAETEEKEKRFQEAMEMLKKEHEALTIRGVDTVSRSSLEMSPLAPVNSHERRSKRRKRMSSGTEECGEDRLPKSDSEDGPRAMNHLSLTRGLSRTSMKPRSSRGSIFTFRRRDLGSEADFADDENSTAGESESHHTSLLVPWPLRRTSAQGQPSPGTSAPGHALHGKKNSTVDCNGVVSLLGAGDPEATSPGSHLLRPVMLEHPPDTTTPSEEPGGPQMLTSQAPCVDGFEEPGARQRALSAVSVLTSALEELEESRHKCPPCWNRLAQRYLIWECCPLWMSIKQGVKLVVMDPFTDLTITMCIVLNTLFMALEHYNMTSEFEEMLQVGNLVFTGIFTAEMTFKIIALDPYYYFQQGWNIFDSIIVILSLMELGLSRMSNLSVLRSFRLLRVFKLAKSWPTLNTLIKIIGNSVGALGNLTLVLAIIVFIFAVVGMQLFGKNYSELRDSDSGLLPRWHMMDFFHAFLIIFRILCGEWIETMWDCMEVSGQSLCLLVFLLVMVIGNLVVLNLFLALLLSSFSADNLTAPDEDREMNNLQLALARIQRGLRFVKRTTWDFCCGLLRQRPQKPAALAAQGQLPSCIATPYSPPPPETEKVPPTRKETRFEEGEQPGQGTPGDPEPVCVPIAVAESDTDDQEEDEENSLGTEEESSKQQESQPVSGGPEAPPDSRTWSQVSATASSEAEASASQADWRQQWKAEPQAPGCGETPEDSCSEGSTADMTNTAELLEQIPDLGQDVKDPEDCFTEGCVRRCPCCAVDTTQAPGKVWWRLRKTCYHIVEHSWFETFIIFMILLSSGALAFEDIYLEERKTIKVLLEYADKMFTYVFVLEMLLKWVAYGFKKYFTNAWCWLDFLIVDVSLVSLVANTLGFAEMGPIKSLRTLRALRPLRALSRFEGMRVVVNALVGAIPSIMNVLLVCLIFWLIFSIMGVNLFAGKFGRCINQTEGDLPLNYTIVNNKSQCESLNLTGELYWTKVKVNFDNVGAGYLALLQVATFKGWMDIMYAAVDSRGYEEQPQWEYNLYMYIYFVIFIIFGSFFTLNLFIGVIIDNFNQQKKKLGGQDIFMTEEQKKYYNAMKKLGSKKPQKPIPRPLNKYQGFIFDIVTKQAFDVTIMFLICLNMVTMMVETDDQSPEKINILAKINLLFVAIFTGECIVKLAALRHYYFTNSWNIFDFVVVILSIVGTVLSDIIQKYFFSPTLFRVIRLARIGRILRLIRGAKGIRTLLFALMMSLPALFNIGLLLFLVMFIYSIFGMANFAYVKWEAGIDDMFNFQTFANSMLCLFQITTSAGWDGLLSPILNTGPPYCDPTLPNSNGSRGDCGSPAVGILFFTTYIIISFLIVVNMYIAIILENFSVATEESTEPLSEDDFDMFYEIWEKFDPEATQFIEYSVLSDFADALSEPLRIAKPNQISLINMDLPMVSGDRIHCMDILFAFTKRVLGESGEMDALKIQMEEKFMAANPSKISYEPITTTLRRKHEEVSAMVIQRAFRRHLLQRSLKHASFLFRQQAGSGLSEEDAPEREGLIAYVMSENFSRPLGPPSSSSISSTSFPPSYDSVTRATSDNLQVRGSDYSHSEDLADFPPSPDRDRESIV

## CCCCNc1ccc(C(=O)OCCN(C)C)cc1 [Tetracaine]
[1]; read-out: % inhibition mean
  inhibition at 0.03 µM: 6.44%
  inhibition at 0.3 µM: 27.2%
  inhibition at 3 µM: 71.3%
  inhibition at 30 µM: 91.3%
  inhibition at 300 µM: 95.9%
[1]; read-out: % inhibition n1
  inhibition at 0.03 µM: 6.26%
  inhibition at 0.3 µM: 28.8%
  inhibition at 3 µM: 74.2%
  inhibition at 30 µM: 93.8%
  inhibition at 300 µM: 96.6%
[1]; read-out: % inhibition n2
  inhibition at 0.03 µM: 6.62%
  inhibition at 0.3 µM: 25.6%
  inhibition at 3 µM: 68.5%
  inhibition at 30 µM: 88.8%
  inhibition at 300 µM: 95.2%

## O=C(NCC1CCCCN1)c1cc(OCC(F)(F)F)ccc1OCC(F)(F)F (stereo not shown) [Flecainide]
[2]; End
  IC50: 10 µM
[2]; Peak
  IC50: 22.5 µM
[2]; [4]
  inhibition at 0.03 µM: 6.93%
  inhibition at 0.3 µM: 7.17%
  inhibition at 3 µM: 26.8%
  inhibition at 30 µM: 71.8%
  inhibition at 300 µM: 90.5%
[2]; End, read-out: % inhibition n1
  inhibition at 0.03 µM: 5.29%
  inhibition at 0.3 µM: 2.84%
  inhibition at 3 µM: 25.6%
  inhibition at 30 µM: 69.2%
  inhibition at 300 µM: 90%
[2]; End, read-out: % inhibition n2
  inhibition at 0.03 µM: 8.57%
  inhibition at 0.3 µM: 11.5%
  inhibition at 3 µM: 27.9%
  inhibition at 30 µM: 74.4%
  inhibition at 300 µM: 91%
[2]; [5]
  inhibition at 0.03 µM: 9.2%
  inhibition at 0.3 µM: 8.4%
  inhibition at 3 µM: 12.6%
  inhibition at 30 µM: 55.2%
  inhibition at 300 µM: 97.4%
[2]; [6]
  inhibition at 0.03 µM: 7.41%
  inhibition at 0.3 µM: 4.05%
  inhibition at 3 µM: 10.6%
  inhibition at 30 µM: 57.5%
  inhibition at 300 µM: 97.4%
[2]; [7]
  inhibition at 0.03 µM: 11%
  inhibition at 0.3 µM: 12.8%
  inhibition at 3 µM: 14.5%
  inhibition at 30 µM: 53%
  inhibition at 300 µM: 97.3%

## [Ba+2].[Cl-].[Cl-] [Barium, Barium Chloride]
[3]; End
  IC50: 3.6 µM
[3]; Peak
  IC50: 62.3 µM
[3]; End, 0.3 μM
  % inhibition mean: 7.01%
  % inhibition n1: 6.49%
  % inhibition n2: 7.53%
[3]; End, 1 μM
  % inhibition mean: 18.29%
  % inhibition n1: 19.93%
  % inhibition n2: 16.65%
[3]; End, 3 μM
  % inhibition mean: 41.38%
  % inhibition n1: 39.87%
  % inhibition n2: 42.88%
[3]; End, 10 μM
  % inhibition mean: 80.72%
  % inhibition n1: 79.79%
  % inhibition n2: 81.66%
[3]; End, 30 μM
  % inhibition mean: 93.28%
  % inhibition n1: 93.64%
  % inhibition n2: 92.93%
[3]; End, 100 μM
  % inhibition mean: 98.46%
  % inhibition n1: 98.46%
  % inhibition n2: 98.47%
[3]; Peak, 0.3 μM
  % inhibition mean: 2.37%
  % inhibition n1: 1.78%
  % inhibition n2: 2.96%
[3]; Peak, 1 μM
  % inhibition mean: 6.45%
  % inhibition n1: 7.99%
  % inhibition n2: 4.90%
[3]; Peak, 3 μM
  % inhibition mean: 12.57%
  % inhibition n1: 14.88%
  % inhibition n2: 10.25%
[3]; Peak, 10 μM
  % inhibition mean: 13.31%
  % inhibition n1: 16.68%
  % inhibition n2: 9.94%
[3]; Peak, 30 μM
  % inhibition mean: 31.99%
  % inhibition n1: 38.78%
  % inhibition n2: 25.19%
[3]; Peak, 100 μM
  % inhibition mean: 62.64%
  % inhibition n1: 63.60%
  % inhibition n2: 61.68%
